# According to patent publication US5462861A, “Method for improving enzyme activities with noble gases” (American Air Liquide, Chicago Research Center, priority 1993, dated 1995):
# “Also recorded” adds a separate entry of the source.
# Assays:
# [1] = tested on: Tyrosinase; test: Gas mixture experiment, tyrosinase; type: biochemical, Mushroom; conditions: Mix = % Xe in AR; inhibition vs. air control; 25° C.
# Method: In addition to mixes of noble gases with nitrogen and oxygen, and of mixes of Kr and Xe, serial mixes of Ar and either Xe or Kr were tested. Results for tyrosinase expressed as inhibition vs. air control: Apr. 18, 1991: Gas mix prep: 120 cc serum vials were used to mix the gassed in. These vials were purged using vacuum while 1 atm of argon was maintained in the vial. The vials were purged for 20 seconds in this manner. The vials were under slight pressure which was released through a needle. This is considered 120 cc of Argon. The necessary volumes of Argon and the gas to be mixed with (Xe or Kr) were then introduced into the vials using a 30 cc syringe and needle. We gassed the enzyme using 1 vial of gas mix using 8×10 cc of gas out of the vial. We gassed the cuvette/substrate using a second vial of gas mix using 8×10 cc of gas out of the vial. Argon and Xenon were retrieved from the gas cylinders. […] We determined that we would be unable to retrieve 8×10 cc of gas mix from 1 vial. […] We prepared the Ar/Kr mixes as described above and did 2 replicates of the 10% and 50% mixes.
# [2] = tested on: Tyrosinase; test: Tyrosinase-L-tyrosine reaction, solution saturated with gas; type: biochemical, Mushroom; conditions: for temperature dependence of the effect on tyrosinase: various temperatures (15-35° C.); for effect on rate and final equilibrium of the tyrosinase-L-tyrosine reaction: various temperatures
# Method: (§1) Solution preparation: Optimized w/v solutions are prepared by diluting the enzyme (units/ml) and the substrate (μg/ml) in appropriate buffer (optimized pH and molarity for enzymes). The solutions are used for gas experiments at once to avoid loss of activity. Various enzyme and substrate concentrations and inhibitors may be employed. Physical parameters are varied as required.
# (§2) Preparation of samples: Cuvets are filled with 2 ml of substrate solution by means of a gas-tight syringe. Gas-tight serum vials are filled with enzyme and solvent. Sufficient gas is consecutively bubbled in the cuvets and serum vials, with a 1-hr wait between injections to maximize equilibration of gas. All syringes and dead spaces are purged before filling with the appropriate gas. The amount of gas used has been measured sufficient to saturate the solution required.
# (§3) Spectrophotometric time-drive, reaction rate, and kinetic analyses: cuvets and serum vials are saturated with gas 40 minutes before the run. A gas-filled syringe is used to retrieve 0.5 ml of enzyme solution to avoid air contact. The 0.5 ml syringe injections of enzyme are made simultaneously to effect a common starting time to for the samples. 7 gases (air, O2, N2, Ne, Ar, Kr, Xe) are run at various temperatures each (from 0° to 60° ). Changes in the rate or final equilibrium of the reaction versus ambient air are recorded. Comparison is also made with added oxygen, and with deoxygenation. Some samples are also prepared under pressure.
# 1. Solution preparation: 10% w/v solutions are prepared by diluting the enzyme (units/ml) and the substrate (μg/ml) in Sodium Phosphate buffer (pH 6.85, optimized pH for enzymes). The solutions are stored in refrigerator (0°-5° C.) and used for gas experiments within 2 or 3 days to avoid loss of activity.
# 6. Preparation of run samples: Acrylic cuvets are filled with 2 ml of substrate solution by means of a gas tight syringe. Gastight serum vials are filled with enzyme. 3×10 cc of gas are consecutively bubbled in the cuvets and serum vials, with a […] between injections. This represents a 10× displacement of dead volume while maximizing equilibration of gas. All syringes and dead spaces are purged before filling with the appropriate gas. After the third 10 cc injection, the cuvets and serum vials are left overnight under two 10 cc syringes filled with the appropriate gas in refrigerator at 0°-5° C.
# 8. Spectrophotometric runs: The cuvets and serum vials are filled with 10 cc of gas 40 min before the run. A gas-filled syringe is used to retrieve 0.5 ml of enzyme solution to avoid air contact. The 0.5 ml syringe injections of enzyme are made simultaneously to effect a common starting time t0 for the samples. Seven gases (air, O2, N2, Ne, Ar, Kr, Xe) are run at five temperatures each (15° C., 20° C., 25° C., 30° C., 35° C.). Changes in the rate or final equilibrium of the reaction versus ambient air are recorded.
# The optimal conditions are [E]/[S] (100 μg/ml)/(100 μg/ml), the changes in absorbance being observed at 305 nm.
# 3×10 cc of gas are bubbled in the silicone-sealed cuvets and serum vials (T-3754, T-7755), with an interval of 20 min (at 0°-5°C.) between each gas injection.
# a. The silicone-sealed cuvets are removed from the refrigerator 40 min before the experimental run, filled with 10 cc of gas and left at room temperature (26° C.) under two 10 cc syringes.
# The 0.5 ml syringe injections of enzyme are made simultaneously to effect a common starting time t0 for the samples.
# 200 points, 18 s intervals 1 hr run
# [3] = molecular target: T1, citrate synthetase (Homo sapiens, UniProt O75390); test: Citrate synthetase complex reaction under gas; type: biochemical
# T1 sequence (O75390 28-466): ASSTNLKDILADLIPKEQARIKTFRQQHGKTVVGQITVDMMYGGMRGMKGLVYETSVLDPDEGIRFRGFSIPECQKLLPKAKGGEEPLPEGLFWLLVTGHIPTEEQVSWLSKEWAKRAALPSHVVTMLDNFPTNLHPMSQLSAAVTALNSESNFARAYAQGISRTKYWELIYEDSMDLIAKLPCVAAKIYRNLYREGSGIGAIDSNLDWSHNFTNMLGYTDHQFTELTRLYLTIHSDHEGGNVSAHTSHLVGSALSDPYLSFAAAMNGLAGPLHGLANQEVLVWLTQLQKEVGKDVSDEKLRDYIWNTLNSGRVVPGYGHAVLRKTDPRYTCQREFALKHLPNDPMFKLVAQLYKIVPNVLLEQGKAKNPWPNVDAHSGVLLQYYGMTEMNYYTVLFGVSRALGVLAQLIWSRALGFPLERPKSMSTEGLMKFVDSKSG
# Method: as §1, §2, §3
# (§4) In a complete experiment, an enzyme at optimal pH and buffering salt concentration is reacted with 5 substrate concentrations in solution with noble gas at 1 atm. […] Controls are also run after evacuation of solution by vacuum. The reaction is monitored colorimetrically in a scanning spectrophotometer in real time, and the signals are treated mathematically to obtain rate and yield differences. Sample numbers are constant and sufficient to ensure significance of results. All parameters are independently controlled and measured, and more complex experiments are occasionally carried out.
# [4] = tested on: tyrosinase; test: Oxygen addition experiment, tyrosinase; type: biochemical
# Method: as §4
# [5] = molecular target: Triosephosphate isomerase (Homo sapiens, UniProt P60174); test: Triosephosphate isomerase activity under gas; type: biochemical; conditions: 10° C.; plus = enhancement
# Method: as §1, §2, §3, §4
# [6] = tested on: oxidoreductase enzymes; test: Oxidoreductases, effects for the class; type: biochemical
# Method: as §1, §2, §3, §4
# [7] = molecular target: Gamma-glutamyl transpeptidase (Homo sapiens, UniProt P19440); test: Gamma-glutamyl transpeptidase activity under gas; type: biochemical
# Method: as §1, §2, §3, §4
# Sequence of Gamma-glutamyl transpeptidase (P19440 1-380 limits assumed): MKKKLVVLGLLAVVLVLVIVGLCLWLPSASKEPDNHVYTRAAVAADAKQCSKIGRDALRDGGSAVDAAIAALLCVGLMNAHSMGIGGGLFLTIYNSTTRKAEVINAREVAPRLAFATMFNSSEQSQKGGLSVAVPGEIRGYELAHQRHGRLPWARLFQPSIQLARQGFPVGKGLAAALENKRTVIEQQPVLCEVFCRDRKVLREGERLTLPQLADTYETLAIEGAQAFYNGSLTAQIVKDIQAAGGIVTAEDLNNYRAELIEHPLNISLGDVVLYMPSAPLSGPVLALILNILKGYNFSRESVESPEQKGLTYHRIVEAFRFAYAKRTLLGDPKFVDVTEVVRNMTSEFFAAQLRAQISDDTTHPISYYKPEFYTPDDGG
# Sequence of Triosephosphate isomerase (P60174 2-249 limits assumed, species assumed): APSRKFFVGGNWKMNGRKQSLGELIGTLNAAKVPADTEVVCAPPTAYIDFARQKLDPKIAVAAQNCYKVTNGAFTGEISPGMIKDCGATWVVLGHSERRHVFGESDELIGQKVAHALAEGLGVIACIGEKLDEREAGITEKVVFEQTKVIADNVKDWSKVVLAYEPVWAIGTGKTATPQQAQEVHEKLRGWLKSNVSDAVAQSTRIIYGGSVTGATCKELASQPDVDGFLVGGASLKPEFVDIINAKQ
structure (smiles),measurement,setting,value
"[Xe] [Xe, xenon]",% inhibited,[1],-86%
same,effect on tyrosinase-L-tyrosine reaction,[2]; 15° C.,"small, but significant inhibitory effect; also recorded: small but significant inhibitory effect"
same,effect on tyrosinase-L-tyrosine reaction,[2]; 20° C.,inhibits the tyrosinase-L-tyrosine reaction quite strongly; also recorded: dramatically inhibit; also recorded: inhibiting effects
same,effect on tyrosinase-L-tyrosine reaction,[2]; 25° C.,inhibitory effect
same,effect,"[2]; 25° C., optimal reaction conditions, simple saturation of solution with gas, minus = inhibition",-73%
same,effect on tyrosinase,[2]; 26° C.,very large inhibition; also recorded: optimal inhibition curve
same,area of run curve,"[2]; 26° C., FIG. 6",~3037 μ
same,inhibition of air rate,"[2]; 26° C., FIG. 6, estimated from curve areas",~72.92%
same,total area as % of air area,"[2]; 26° C., FIG. 6, 60 min",~27.08%
same,% total area,"[2]; 26° C., FIG. 6, total = air + xenon areas",~21.31
same,effect on tyrosinase-L-tyrosine reaction,"[2]; 30° C., listed as Xenon",inhibits the reaction much better than other gases
same,effect on tyrosinase-L-tyrosine reaction,"[2]; 30° C., listed as xenon",inhibitory effect
same,effect on tyrosinase,"[2]; equal w/w, FIG. 5",inhibition
same,temperature dependence of the effect on tyrosinase,[2]; listed as Xenon,interacts inversely with temperature
same,temperature dependence of the effect on tyrosinase,[2]; listed as xenon,at least two activity transitions; also recorded: large difference in xenon activity between 20 °C and 25 °C; also recorded: interacts inversely with temperature; also recorded: large difference in xenon activity between 20° and 25 °C
same,effect on rate and final equilibrium of the tyrosinase-L-tyrosine reaction,[2]; listed as Xenon,significantly inhibits the rate and depresses the final equilibrium
same,effect on rate and final equilibrium of the tyrosinase-L-tyrosine reaction,[2]; listed as xenon,inhibits the equilibrium of the tyrosinase-L-tyrosine reaction better than other gases; also recorded: inhibition
same,effect on citrate synthetase complex reaction,[3]; 10° C.,+18
same,effect on citrate synthetase complex reaction,[3]; 25° C.,0
same,effect on citrate synthetase complex reaction,[3]; 35° C.,+32
same,effect on citrate synthase,[3]; FIG. 33,enhancement
same,inhibition,[4]; after addition of oxygen up to a saturating amount to the gas-saturated solution,50%
same,inhibition,[4]; gas-saturated solution before addition of oxygen,85%
same,effect,[5],+24%
same,effect on oxidoreductase reactions,[6],largest effect on the rate
same,Maxima for class: effect,"[6]; Class I oxidoreductases, minus = inhibition",-95%
same,effect on α-glutamyltranspeptidase,[7]; FIG. 29,inhibition
same,effect,[7]; minus = inhibition,-7%
